Test results from patent US4743584A, “C-terminal amide cyclic renin inhibitors containing peptide isosteres” (Merck & Co., Inc., priority 1986, dated 1988).
Positions of bridges follow the written chain, without caps; N, C: chain ends. Residues, ends and D or L forms follow the SMILES beside them. *: point of attachment. Boc = CC(C)(C)OC(=O)*

Legend:
[1] = target: T1, human kidney renin (Homo sapiens, UniProt P00797); assay: Human renin inhibition; assay type: biochemical; conditions: purified human kidney renin; read-out: KI (dissociation constant of the inhibited enzyme-inhibitor complex)
T1 construct: human kidney renin purified as described in Bangham; from tissue; host or cells: human kidney
T1 sequence (P00797 67-406): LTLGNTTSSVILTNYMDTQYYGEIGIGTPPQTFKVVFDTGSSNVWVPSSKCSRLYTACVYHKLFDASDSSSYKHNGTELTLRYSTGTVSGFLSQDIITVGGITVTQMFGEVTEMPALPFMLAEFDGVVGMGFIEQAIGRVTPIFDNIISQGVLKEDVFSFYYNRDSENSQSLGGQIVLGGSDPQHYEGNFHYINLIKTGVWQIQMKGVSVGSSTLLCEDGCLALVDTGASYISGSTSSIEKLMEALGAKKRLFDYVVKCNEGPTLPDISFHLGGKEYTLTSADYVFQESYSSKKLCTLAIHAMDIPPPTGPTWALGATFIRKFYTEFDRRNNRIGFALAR
Experimental: An assay was carried out in order to determine the inhibitory potency of the peptides of the present invention. The assay measured the inhibition of human kidney renin purified as described in Bangham, D. R., Robertson, I., Robinson, J. I. S., Robinson, C. J., and Tree, M., Clinical Science and Molecular Medicine, 48 (Supp. 2): 136s-159s (1975), and further purified by affinity chromatography on pepstatin-aminohexyl-Sepharase as described in Poe, M., Wu., J. K., Florance, J. R., Radkey, J. A., Bennett, C. D., and Hoagsteen, K., J. Biol. Chem. (1982, in press). The assay was also in accordance with Poe et al. cited above. Results are expressed as KI values, which refer to the dissociation constant of the inhibited enzyme-inhibitor complex. This KI value was obtained as described above. […]

[2] = test system: hog kidney renin; assay: Hog renin inhibition; assay type: biochemical; conditions: pH 7.3, read-out: I50 (concentration of peptide inhibitor necessary to produce 50% inhibition of renin activity)
Experimental: An assay was carried out in order to determine the inhibitory potency of the peptides of the present invention. The assay measured the inhibition of hog kidney renin, and was in accordance with the procedure described in Rich et al., J. Med. Chem. 23:27, 1980, except that a pH of 7.3 was used. The results of the assay, illustrated in the table below, are expressed as I50 values, which refers to the concentration of peptide inhibitor necessary to produce 50% inhibition of renin activity. This I50 value is obtained typically by plotting data from four inhibitor concentrations.

[3] = test system: nephrectomized rats; conditions: after the injection of hog renin into nephrectomized rats; Gross et al. 1971; cited from earlier work

With CC(C)[C@@H]1NC(=O)[C@H](Cc2ccccc2)NC(=O)[C@H](Cc2ccccc2)NC(=O)[C@@H](NC(=O)[C@H](Cc2ccccc2)NC(=O)[C@@H]2CCCN2C(=O)[C@H](Cc2c[nH]cn2)NC(=O)[C@@H]2CCCN2)CCCCNC(=O)[C@H](Cc2ccccc2)NC1=O (H-PHPFKFFVF; lactam 5-C) the Ki [1] was 33 µM.

CC(C)C[C@@H]1NC(=O)[C@@H](NC(=O)[C@H](Cc2ccccc2)NC(=O)[C@@H]2CCCN2C(=O)[C@H](Cc2c[nH]cn2)NC(=O)[C@@H]2CCCN2C(=O)OC(C)(C)C)CCCCNC(=O)[C@H](Cc2ccccc2)NC(=O)[C@H](C(C)C)NC(=O)[C@H](CC(C)C)NC1=O [drawing 67] (Boc-PHPFKLLVF; lactam 5-C) gave an IC50 [2] of 1000 µM.

With CC(C)C[C@@H]1NC(=O)[C@@H](NC(=O)[C@H](Cc2ccccc2)NC(=O)[C@@H]2CCCN2C(=O)[C@H](Cc2c[nH]cn2)NC(=O)[C@@H]2CCCN2C(=O)OC(C)(C)C)CCCCNC(=O)[C@H](Cc2ccccc2)NC(=O)[C@H](C(C)C)NC(=O)[C@H](CC(C)C)NC1=O [drawing 69] (Boc-PHPFKLLVF; lactam 5-C) the Ki [1] was 6.4 µM.

In the case of Pepstatin, the “blood pressure in vivo” value [3] is given as “reduce blood pressure”.
